Data as given in patent US5556842A, “Method for viable preservation of lung grafts” (Senju Pharmaceutical Co., Ltd., priority 1994, dated 1996).

Columns and labels:
[1] = test system: lung graft (cardiac arrest donor lungs); experiment: Left-lung transplantation model with cardiac arrest donor lungs; pulmonary function parameters over 6 hours after transplantation; assay type: in vivo, adult mongrel dogs
Source text: The lung preserving effect of the lung graft preservative composition of this invention in the transplantation of cardiac arrest donor lungs was experimentally evaluated.
[Test substance] L-Ascorbyl DL-α-tocopheryl phosphate potassium (abbreviation: EPC-K) dissolved in modified Euro-Collins solution ^1)
[Method] The left-lung transplantation model was constructed in adult mongrel dogs and used. The donor was brought to cardiac standstill by intravenous administration of potassium chloride solution and allowed to stand at room temperature for 2 hours. Then, while Group I (n=3) was perfused with Euro-Collins solution, an organ preservative which is commonly used in lung transplantation, Group II (n=3) was perfused with the lung graft preservative composition of this invention, followed by preservation at 4° C. for 12 hours. After the lung was transplanted into the recipient, the right pulmonary artery and right main branchus were ligated and the pulmonary function parameters were determined over a period of 6 hours.

Acute toxicity LD50 = experiment: Acute toxicity LD50; design: species or system rats; conditions: rat, in vivo

Cc1c(C)c2c(c(C)c1OP(=O)(O)OC1=C(O)[C@@H]([C@@H](O)CO)OC1=O)CCC(C)(CCCC(C)CCCC(C)CCCC(C)C)O2 (mixture of isomers) [EPC-K, L-Ascorbyl DL-α-tocopheryl phosphate potassium]
arterial blood carbon dioxide partial pressure (PaCO2) ([1]; 5 hours after lung transplantation, preserved at 4° C. for 12 hours, n=3): 32.4±20.9 mmHg
arterial blood oxygen partial pressure (PaO2) ([1]; 6 hours after lung transplantation, donor lung 2 h at room temperature after cardiac standstill, preserved at 4° C. for 12 hours, n=3): 460±94 mmHg
extravascular lung water (EVLW), indicator of pulmonary edema ([1]; FIG. 3, vs. Euro-Collins solution (control)): effective in inhibiting edema
pulmonary vascular resistance (PVR) ([1]; FIG. 5, vs. Euro-Collins solution (control)): inhibits the increase of pulmonary vascular resistance
pulmonary arterial pressure (PAP) ([1]; FIG. 6, vs. Euro-Collins solution (control)): inhibits pulmonary edema without increasing pulmonary vascular resistance
cardiac output (CO) ([1]; FIG. 7, vs. Euro-Collins solution (control)): exerts no adverse influence on the heart
pulmonary blood shunt fraction ([1]; after 1 and 2 hours, FIG. 4, vs. Euro-Collins solution (control)): pulmonary blood shunt inhibitory effect which is significant after 1 and 2 hours
arterial blood carbon dioxide partial pressure (PaCO2), effect in words ([1]; after 5 hours, vs. Group I (Euro-Collins solution), FIG. 2): remarkably effective
various parameters of pulmonary function ([1]; after blood reperfusion): very favorable effects on various parameters of pulmonary function
pulmonary blood shunt fraction, other time-points ([1]; time-points other than 1 and 2 hours, FIG. 4): This inhibitory effect was also noted at other time-points
arterial blood oxygen partial pressure (PaO2), other time-points ([1]; time-points other than 6 hours, vs. Group I (Euro-Collins solution), FIG. 1): Results in Favor of Group II were obtained at other time-points, too
LD50 (Acute toxicity LD50; iv, i.v. (rats)): ≥ 100 mg/kg
LD50 (Acute toxicity LD50; po, p.o. (rats)): ≥ 5000 mg/kg
